This test deals with T1, human renin (Homo sapiens, UniProt P00797).
T1 construct: purchased National Institute for Biological Standards, London
T1 sequence (P00797 67-406): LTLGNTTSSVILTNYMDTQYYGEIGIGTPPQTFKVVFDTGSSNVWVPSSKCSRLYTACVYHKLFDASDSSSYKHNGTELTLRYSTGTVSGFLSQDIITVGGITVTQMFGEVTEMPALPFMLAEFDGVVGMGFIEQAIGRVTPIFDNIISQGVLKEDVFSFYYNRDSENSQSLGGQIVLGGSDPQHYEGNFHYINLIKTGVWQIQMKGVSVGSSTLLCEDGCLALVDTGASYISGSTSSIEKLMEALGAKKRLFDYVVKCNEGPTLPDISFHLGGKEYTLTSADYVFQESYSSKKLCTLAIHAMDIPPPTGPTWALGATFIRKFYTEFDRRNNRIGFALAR
Description: Human renin inhibition in vitro. It counts as biochemical. To be noted: human plasma angiotensinogen, pH 7.4, 37° C., two hours; angiotensin I by radioimmunoassay. How it is done:
Compounds of Formula I were evaluated as inhibitors of human renin in an in vitro assay, as follows: This human renin inhibition test has been previously described in detail [Papaioannou et al., Clinical and Experimental Hypertension, A7(9), 1243-1257 (1985)]. Human renin was obtained from the National Institute for Biological Standards, London. An incubation mixture was prepared containing the following components: in a total volume of 0.25 mL: 100 mM Tris-acetate buffer at pH 7.4, 25×10^−6 Goldblatt units of renin, 0.05 mL of plasma from human volunteers taking oral contraceptives, 6.0 mM Na-EDTA, 2.4 mM phenylmethyl sulfonyl fluoride, 1.5 mM 8-hydroxyquinoline, 0.4 mg/mL bovine serum albumin (BSA), and 0.024 mg/mL neomycin sulfate. This mixture was incubated for two hours at 37° C. in the presence or absence of renin inhibitors. The produced angiotensin I was determined by radioimmunoassay (New England Nuclear kit). Test compounds to be assayed were dissolved in DMSO and diluted with 100 mM Tris-acetate buffer at pH 7.4 containing 0.5% BSA to the appropriate concentration. The final concentration of organic solvent in the reaction mixture was less than 1%. Control incubations at 37° C. were used to correct for effects of organic solvent on renin activity.

`C#CC[C@H](NC(=O)[C@@H](CC(=O)N(C)CCn1ccnc1)Cc1ccccc1)C(=O)N[C@@H](CC1CCCCC1)[C@@H](O)[C@@H](O)CC(C)C` (relative stereo) [Example 1, N^1-[1R*-[[[1S,1R*-(cyclohexylmethyl)-2S*,3R*-dihydroxy-5-methylhexyl]amino]carbonyl]-3-butynyl]-N^4-[2-(1H-imidazol-1-yl)ethyl]-N^4-methyl-2S*-(phenylmethyl)butanediamide] registered an IC50 of 0.18 nM.

Values taken from patent US20020115867A1, “Imidazolyl/benzimidazolyl-terminated alkylamino ethynyl alanine amino diol compounds for treatment of hypertension” (priority 1992, published 2002).
